According to patent publication US20250206724A1, “SUBSTITUTED 3-AMINO INDAZOLE DERIVATIVES AS KINASE INHIBITORS” (NERVIANO MEDICAL SCIENCES S.R.L., priority 2022, published 2025):
Counter-ions that a name gives are not always drawn.
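Note: compound preincubated 30 min with CDK11A-p58, then probe added and polarization (mP) read 15 min later, 0% displacement is probe plus enzyme, 100% is probe alone.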

The molecules below were run against T1, CDK11A (Homo sapiens, UniProt Q9UQ88). Settings: displacement of SNS-032-Atto590 probe (0.002 μM) from CDK11A-p58 (0.032 uM), fluorescence polarization.
T1 sequence (Q9UQ88 346-783): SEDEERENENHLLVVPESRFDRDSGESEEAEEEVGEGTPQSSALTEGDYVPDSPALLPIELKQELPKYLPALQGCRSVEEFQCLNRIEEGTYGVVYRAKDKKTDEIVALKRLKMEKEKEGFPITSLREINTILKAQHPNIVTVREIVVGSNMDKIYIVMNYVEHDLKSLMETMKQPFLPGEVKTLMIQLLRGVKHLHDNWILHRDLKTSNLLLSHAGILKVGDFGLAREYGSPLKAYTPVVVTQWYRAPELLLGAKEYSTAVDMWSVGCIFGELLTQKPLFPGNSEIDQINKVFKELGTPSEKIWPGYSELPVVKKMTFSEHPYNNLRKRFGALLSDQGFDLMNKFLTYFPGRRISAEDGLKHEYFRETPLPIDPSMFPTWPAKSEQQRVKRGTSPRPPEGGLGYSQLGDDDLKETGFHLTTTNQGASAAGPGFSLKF
COc1cc(F)c(-c2ccc3[nH]nc(NC(=O)C4CCN(C)CC4)c3c2)c(F)c1 [cpd 120, N-[5-(2,6-Difluoro-4-methoxyphenyl)-1H-indazol-3-yl]-1-methylpiperidine-4-carboxamide hydrochloride] gave a DC50 of 619 nM. O=C(Nc1n[nH]c2ccc(-c3cc(Cl)ccc3Cl)cc12)C1CCCNC1 (centres unmarked) [cpd 4, N-[5-(2,5-Dichlorophenyl)-1H-indazol-3-yl]piperidine-3-carboxamide hydrochloride] was tested, and the DC50 was 50 nM. CN1CCC(C(=O)Nc2n[nH]c3ccc(-c4ccc(C=O)cc4F)cc23)CC1 [cpd 118, N-[5-(2-Fluoro-4-formylphenyl)-1H-indazol-3-yl]-1-methylpiperidine-4-carboxamide hydrochloride] was tested, and the DC50 was 467 nM. Work on CN(C)C1CC(C(=O)Nc2n[nH]c3ccc(-c4ccc(O)cc4Cl)cc23)C1 (centres unmarked) [cpd 62, N-[5-(2-Chloro-4-hydroxyphenyl)-1H-indazol-3-yl]-3-(dimethylamino)cyclobutanecarboxamide hydrochloride] yielded a DC50 of 148 nM. O=C(Nc1n[nH]c2ccc(-c3cc(Cl)ccc3C(F)(F)F)cc12)C1CCCNC1 (centres unmarked) [cpd 15, N-{5-[5-Chloro-2-(trifluoromethyl)phenyl]-1H-indazol-3-yl}piperidine-3-carboxamide trifluoroacetate] showed a DC50 of 130 nM. Nc1ccc(-c2ccc3[nH]nc(NC(=O)[C@@H]4CCCNC4)c3c2)c(Cl)c1 [cpd 5, (3R)-N-[5-(4-Amino-2-chlorophenyl)-1H-indazol-3-yl]piperidine-3-carboxamide dihydrochloride] showed a DC50 of 18 nM. Cc1nc(-c2ccc(Cl)c(-c3ccc4[nH]nc(NC(=O)[C@@H]5CCCNC5)c4c3)c2)no1 [cpd 60, (3R)-N-{5-[2-Chloro-5-(5-methyl-1,2,4-oxadiazol-3-yl)phenyl]-1H-indazol-3-yl}piperidine-3-carboxamide dihydrochloride] showed a DC50 of 163 nM. For O=C(Nc1n[nH]c2ccc(-c3cc(-c4ncon4)ccc3Cl)cc12)[C@@H]1CCCNC1 [cpd 58, (3R)-N-{5-[2-Chloro-5-(1,2,4-oxadiazol-3-yl)phenyl]-1H-indazol-3-yl}piperidine-3-carboxamide dihydrochloride], the DC50 was 20 nM. For N#Cc1ccc(Cl)c(-c2ccc3[nH]nc(NC(=O)[C@H]4CCCNC4)c3c2)c1 [compound 181, (3S)-N-[5-(2-Chloro-5-cyanophenyl)-1H-indazol-3-yl]piperidine-3-carboxamide hydrochloride], the DC50 was 64 nM. Molecule N#Cc1ccc(Cl)c(-c2ccc3[nH]nc(NC(=O)C4CCNCC4)c3c2)c1 [cpd 61, N-[5-(2-Chloro-5-cyanophenyl)-1H-indazol-3-yl]piperidine-4-carboxamide hydrochloride] has a DC50 of 139 nM. Cc1ccc(Cl)c(-c2ccc3[nH]nc(NC(=O)C4CCN(C)CC4)c3c2)c1 [cpd 86, N-[5-(2-Chloro-5-methylphenyl)-1H-indazol-3-yl]-1-methylpiperidine-4-carboxamide hydrochloride] gave a DC50 of 502 nM. CNC(=O)c1ccc(Cl)c(-c2ccc3[nH]nc(NC(=O)[C@@H]4CCNC4)c3c2)c1 [cpd 39, (3R)-N-{5-[2-Chloro-5-(methylcarbamoyl)phenyl]-1H-indazol-3-yl}pyrrolidine-3-carboxamide hydrochloride] was tested, and the DC50 was 44 nM. In the case of CCCCCN1CCC(C(=O)Nc2n[nH]c3ccc(-c4cc(C#N)ccc4Cl)cc23)CC1 [compound 142, N-[5-(2-Chloro-5-cyanophenyl)-1H-indazol-3-yl]-1-pentylpiperidine-4-carboxamide hydrochloride], the DC50 is reported as 95 nM. CN1CCC(C(=O)Nc2n[nH]c3ccc(-c4c(Cl)cc(Cl)cc4Cl)cc23)CC1 [cpd 108, 1-Methyl-N-[5-(2,4,6-trichlorophenyl)-1H-indazol-3-yl]piperidine-4-carboxamide hydrochloride] showed a DC50 of 150 nM. CN(C)C1CCC(C(=O)Nc2n[nH]c3ccc(-c4c(Cl)cccc4Cl)cc23)CC1 (centres unmarked) [compound 166, N-[5-(2,6-Dichlorophenyl)-1H-indazol-3-yl]-4-(dimethylamino)cyclohexanecarboxamide hydrochloride] gave a DC50 of 133 nM. For CN1CCC(C(=O)Nc2n[nH]c3ccc(-c4cc(C#N)ccc4Cl)cc23)CC1 [cpd 116, N-[5-(2-Chloro-5-cyanophenyl)-1H-indazol-3-yl]-1-methylpiperidine-4-carboxamide trifluoroacetate], the DC50 was 63 nM. With CC(C)C(OC(=O)N1CCC[C@@H](C(=O)Nc2n[nH]c3ccc(-c4cc(C#N)ccc4Cl)cc23)C1)OC(=O)C(C)(C)C (stereo partly drawn) [compound 197, 1-[(2,2-Dimethylpropanoyl)oxy]-2-methylpropyl (3R)-3-{[5-(2-chloro-5-cyanophenyl)-1H-indazol-3-yl]carbamoyl}piperidine-1-carboxylate] the DC50 was 900 nM. CCc1ccccc1-c1ccc2[nH]nc(NC(=O)C3CCN(C)CC3)c2c1 [cpd 88, N-[5-(2-Ethylphenyl)-1H-indazol-3-yl]-1-methylpiperidine-4-carboxamide hydrochloride] was tested, and the DC50 was 822 nM. For COC(=O)c1ccc(Cl)c(-c2ccc3[nH]nc(NC(=O)[C@@H]4CCCNC4)c3c2)c1Cl [cpd 57, Methyl 2,4-dichloro-3-(3-{[(3R)-piperidin-3-ylcarbonyl]amino}-1H-indazol-5-yl)benzoate hydrochloride], the DC50 was 45 nM. Molecule CC(=O)c1ccc(Cl)c(-c2ccc3[nH]nc(NC(=O)[C@@H]4CCNC4)c3c2)c1 [cpd 38, (3R)-N-[5-(5-Acetyl-2-chlorophenyl)-1H-indazol-3-yl]pyrrolidine-3-carboxamide hydrochloride] has a DC50 of 16 nM. O=C(Nc1n[nH]c2ccc(-c3ccccc3Cl)cc12)[C@@H]1CCCNC1 [cpd 47, (3R)-N-[5-(2-Chlorophenyl)-1H-indazol-3-yl]piperidine-3-carboxamide hydrochloride] gave a DC50 of 38 nM. N#Cc1ccc(Cl)c(-c2ccc3[nH]nc(NC(=O)[C@H]4CNCCO4)c3c2)c1 [compound 182, (2R)-N-[5-(2-Chloro-5-cyanophenyl)-1H-indazol-3-yl]morpholine-2-carboxamide hydrochloride] was tested, and the DC50 was 140 nM. COc1ccc(-c2ccc3[nH]nc(NC(=O)[C@@H]4CCCNC4)c3c2)c(C(F)(F)F)c1 [cpd 31, (3R)-N-{5-[4-Methoxy-2-(trifluoromethyl)phenyl]-1H-indazol-3-yl}piperidine-3-carboxamide hydrochloride] was tested, and the DC50 was 94 nM. N#Cc1ccc(Cl)c(-c2ccc3[nH]nc(NC(=O)C4CN5CCC4CC5)c3c2)c1 (centres unmarked) [compound 188, N-[5-(2-Chloro-5-cyanophenyl)-1H-indazol-3-yl]-1-azabicyclo[2.2.2]octane-3-carboxamide hydrochloride] was tested, and the DC50 was 275 nM. O=C(Nc1n[nH]c2ccc(-c3ccc(O)cc3Cl)cc12)C1CCCNC1 (centres unmarked) [cpd 3, N-[5-(2-Chloro-4-hydroxyphenyl)-1H-indazol-3-yl]piperidine-3-carboxamide hydrochloride] showed a DC50 of 51 nM. O=C(Nc1n[nH]c2ccc(-c3cc(-c4nnco4)ccc3Cl)cc12)[C@@H]1CCCNC1 [cpd 59, (3R)-N-{5-[2-Chloro-5-(1,3,4-oxadiazol-2-yl)phenyl]-1H-indazol-3-yl}piperidine-3-carboxamide trifluoroacetate] was tested, and the DC50 was 57 nM. CN1CCC(C(=O)Nc2n[nH]c3ccc(-c4ccccc4F)cc23)CC1 [cpd 78, N-[5-(2-Fluorophenyl)-1H-indazol-3-yl]-1-methylpiperidine-4-carboxamide hydrochloride] gave a DC50 of 308 nM. Work on CC(=O)c1ccc(F)c(-c2ccc3[nH]nc(NC(=O)[C@@H]4CCCNC4)c3c2)c1 [cpd 19, (3R)-N-[5-(5-Acetyl-2-fluorophenyl)-1H-indazol-3-yl]piperidine-3-carboxamide hydrochloride] yielded a DC50 of 27 nM. In the case of Cc1ccc(F)c(-c2ccc3[nH]nc(NC(=O)C4CCN(C)CC4)c3c2)c1Cl [cpd 73, N-[5-(2-Chloro-6-fluoro-3-methylphenyl)-1H-indazol-3-yl]-1-methylpiperidine-4-carboxamide hydrochloride], the DC50 is reported as 476 nM. Cc1ccc(Cl)c(-c2ccc3[nH]nc(NC(=O)C4CCN(C)CC4)c3c2)c1F [cpd 72, N-[5-(6-Chloro-2-fluoro-3-methylphenyl)-1H-indazol-3-yl]-1-methylpiperidine-4-carboxamide hydrochloride] was tested, and the DC50 was 166 nM. Work on C[C@@H]1CC[C@@H](C(=O)Nc2n[nH]c3ccc(-c4c(Cl)cccc4Cl)cc23)CN1 [compound 178, (3R,6R)-N-[5-(2,6-Dichlorophenyl)-1H-indazol-3-yl]-6-methylpiperidine-3-carboxamide trifluoroacetate] yielded a DC50 of 28 nM. N#Cc1ccc(Cl)c(-c2ccc3[nH]nc(NC(=O)C4CC(NC5CC5)C4)c3c2)c1 (centres unmarked) [compound 155, N-[5-(2-Chloro-5-cyanophenyl)-1H-indazol-3-yl]-3-(cyclopropylamino)cyclobutanecarboxamide hydrochloride] showed a DC50 of 53 nM. Molecule CN1CCC(C(=O)Nc2n[nH]c3ccc(-c4cccc(C#N)c4)cc23)CC1 [cpd 89, N-[5-(3-Cyanophenyl)-1H-indazol-3-yl]-1-methylpiperidine-4-carboxamide hydrochloride] has a DC50 of 784 nM. Nc1ccc(-c2ccc3[nH]nc(NC(=O)C4CCCNC4)c3c2)c(Cl)c1 (centres unmarked) [cpd 1, N-[5-(4-Amino-2-chlorophenyl)-1H-indazol-3-yl]piperidine-3-carboxamide dihydrochloride] gave a DC50 of 49 nM. For COc1ccc(Cl)c(-c2ccc3[nH]nc(NC(=O)C4CCCNC4)c3c2)c1 (centres unmarked) [cpd 17, N-[5-(2-Chloro-5-methoxyphenyl)-1H-indazol-3-yl]piperidine-3-carboxamide hydrochloride], the DC50 was 52 nM.
